In ChEMBL document CHEMBL5380831, “Azolylpyrimidinediols as Novel Structural Scaffolds of DNA-Groove Binders against Intractable Acinetobacter baumannii” (J Med Chem, 2023):
≈ marks a conversion by molar mass, not a printed value.

What was measured:
Format in all cases: functional
Staphylococcus aureus [1] = assay: Antibacterial activity against Staphylococcus aureus ATCC 29213 assessed as bacterial growth inhibition incubated for 24 hrs by broth microdilution method
Staphylococcus aureus [2] = assay: Antibacterial activity against Staphylococcus aureus ATCC 25923 assessed as bacterial growth inhibition incubated for 24 hrs by broth microdilution method
Escherichia coli [3] = assay: Antibacterial activity against Escherichia coli ATCC 25922 assessed as bacterial growth inhibition incubated for 24 hrs by broth microdilution method
Escherichia coli [4] = assay: Antibacterial activity against Escherichia coli assessed as bacterial growth inhibition incubated for 24 hrs by broth microdilution method
Enterococcus faecalis = assay: Antibacterial activity against Enterococcus faecalis assessed as bacterial growth inhibition incubated for 24 hrs by broth microdilution method
Klebsiella pneumoniae = assay: Antibacterial activity against Klebsiella pneumoniae assessed as bacterial growth inhibition incubated for 24 hrs by broth microdilution method
Staphylococcus aureus [5] = assay: Antibacterial activity against Staphylococcus aureus assessed as bacterial growth inhibition incubated for 24 hrs by broth microdilution method
Pseudomonas aeruginosa [6] = assay: Antibacterial activity against Pseudomonas aeruginosa ATCC 27853 assessed as bacterial growth inhibition incubated for 24 hrs by broth microdilution method
Acinetobacter baumannii [7] = assay: Induction of drug resistance against Acinetobacter baumannii assessed as fold increase in MIC after 20 passages measured for 20 days by sequential passaging method; conditions: time 20.0 day
Acinetobacter baumannii [8] = assay: Antibacterial activity against Acinetobacter baumannii assessed as bacterial growth inhibition incubated for 24 hrs by broth microdilution method
Staphylococcus aureus [9] = assay: Antibacterial activity against methicillin-resistant Staphylococcus aureus assessed as bacterial growth inhibition incubated for 24 hrs by broth microdilution method
Pseudomonas aeruginosa [10] = assay: Antibacterial activity against Pseudomonas aeruginosa assessed as bacterial growth inhibition incubated for 24 hrs by broth microdilution method

| Compound | MIC (Staphylococcus aureus [1]) | MIC (Staphylococcus aureus [2]) | MIC (Escherichia coli [3]) | MIC (Escherichia coli [4]) | MIC (Enterococcus faecalis) | MIC (Klebsiella pneumoniae) | MIC (Staphylococcus aureus [5]) | MIC (Pseudomonas aeruginosa [6]) | fold change (FC) (Acinetobacter baumannii [7]) | MIC (Acinetobacter baumannii [8]) | MIC (Staphylococcus aureus [9]) | MIC (Pseudomonas aeruginosa [10]) |
| --- | --- | --- | --- | --- | --- | --- | --- | --- | --- | --- | --- | --- |
| CCn1cc(C(=O)O)c(=O)c2cc(F)c(N3CCNCC3)cc21 [NORFLOXACIN] | 6 µM (≈ 1.92 µg/mL) | 2 µM (≈ 0.639 µg/mL) | 3 µM (≈ 0.958 µg/mL) | 25 µM (≈ 7.98 µg/mL) | 100 µM (≈ 31.9 µg/mL) | 6 µM (≈ 1.92 µg/mL) | 3 µM (≈ 0.958 µg/mL) | 3 µM (≈ 0.958 µg/mL) | 31 | 6 µM (≈ 1.92 µg/mL) | 50 µM (≈ 16 µg/mL) | 1 µM (≈ 0.319 µg/mL) |
| CC(=O)N1CCN(c2nccc(-n3cncn3)n2)CC1 | 937 µM (≈ 256 µg/mL) | 937 µM (≈ 256 µg/mL) | 4 µM (≈ 1.09 µg/mL) | 937 µM (≈ 256 µg/mL) | 937 µM (≈ 256 µg/mL) | 4 µM (≈ 1.09 µg/mL) | 937 µM (≈ 256 µg/mL) | 937 µM (≈ 256 µg/mL) | – | 937 µM (≈ 256 µg/mL) | 469 µM (≈ 128 µg/mL) | 469 µM (≈ 128 µg/mL) |
| Cc1cn(-c2ccnc(N(CCO)CCO)n2)cn1 | 973 µM (≈ 256 µg/mL) | 973 µM (≈ 256 µg/mL) | 1950 µM (≈ 512 µg/mL) | 973 µM (≈ 256 µg/mL) | 973 µM (≈ 256 µg/mL) | 973 µM (≈ 256 µg/mL) | 973 µM (≈ 256 µg/mL) | 973 µM (≈ 256 µg/mL) | – | 973 µM (≈ 256 µg/mL) | 973 µM (≈ 256 µg/mL) | 973 µM (≈ 256 µg/mL) |
| O=C(c1ccccc1)N1CCN(c2nccc(-n3cncn3)n2)CC1 | 764 µM (≈ 256 µg/mL) | 764 µM (≈ 256 µg/mL) | 6 µM (≈ 2.01 µg/mL) | 764 µM (≈ 256 µg/mL) | 764 µM (≈ 256 µg/mL) | 6 µM (≈ 2.01 µg/mL) | 764 µM (≈ 256 µg/mL) | 764 µM (≈ 256 µg/mL) | – | 764 µM (≈ 256 µg/mL) | 764 µM (≈ 256 µg/mL) | 382 µM (≈ 128 µg/mL) |
| O=C(C(Cl)Cl)N1CCN(c2nccc(-n3cncn3)n2)CC1 | 705 µM (≈ 241 µg/mL) | 705 µM (≈ 241 µg/mL) | 353 µM (≈ 121 µg/mL) | 705 µM (≈ 241 µg/mL) | 705 µM (≈ 241 µg/mL) | 353 µM (≈ 121 µg/mL) | 705 µM (≈ 241 µg/mL) | 705 µM (≈ 241 µg/mL) | – | 705 µM (≈ 241 µg/mL) | 705 µM (≈ 241 µg/mL) | 88 µM (≈ 30.1 µg/mL) |
| OCCN(CCO)c1nccc(-n2cnc3cc(Br)ccc32)n1 | 85 µM (≈ 32.1 µg/mL) | 339 µM (≈ 128 µg/mL) | 1360 µM (≈ 514 µg/mL) | 1360 µM (≈ 514 µg/mL) | 679 µM (≈ 257 µg/mL) | 170 µM (≈ 64.3 µg/mL) | 1360 µM (≈ 514 µg/mL) | 85 µM (≈ 32.1 µg/mL) | – | 170 µM (≈ 64.3 µg/mL) | 339 µM (≈ 128 µg/mL) | 339 µM (≈ 128 µg/mL) |
| CN(C)c1nccc(-n2cncn2)n1 | 1350 µM (≈ 256 µg/mL) | 1350 µM (≈ 256 µg/mL) | 673 µM (≈ 128 µg/mL) | 1350 µM (≈ 256 µg/mL) | 1350 µM (≈ 256 µg/mL) | 1350 µM (≈ 256 µg/mL) | 1350 µM (≈ 256 µg/mL) | 1350 µM (≈ 256 µg/mL) | – | 1350 µM (≈ 256 µg/mL) | 1350 µM (≈ 256 µg/mL) | 337 µM (≈ 64.1 µg/mL) |
| CCc1nccn1-c1nccc(N(CCO)CCO)n1 | 924 µM (≈ 256 µg/mL) | 924 µM (≈ 256 µg/mL) | 924 µM (≈ 256 µg/mL) | 924 µM (≈ 256 µg/mL) | 924 µM (≈ 256 µg/mL) | 1850 µM (≈ 512 µg/mL) | 924 µM (≈ 256 µg/mL) | 924 µM (≈ 256 µg/mL) | – | 924 µM (≈ 256 µg/mL) | 924 µM (≈ 256 µg/mL) | 924 µM (≈ 256 µg/mL) |
| CC(C)c1nccn1-c1nccc(N(CCO)CCO)n1 | 879 µM (≈ 256 µg/mL) | 440 µM (≈ 128 µg/mL) | 1760 µM (≈ 512 µg/mL) | 879 µM (≈ 256 µg/mL) | 1790 µM (≈ 521 µg/mL) | 879 µM (≈ 256 µg/mL) | 879 µM (≈ 256 µg/mL) | 879 µM (≈ 256 µg/mL) | – | 440 µM (≈ 128 µg/mL) | 1760 µM (≈ 512 µg/mL) | 440 µM (≈ 128 µg/mL) |
| Cc1nc2ccccc2n1-c1ccnc(N(CCO)CCO)n1 | 204 µM (≈ 63.9 µg/mL) | 102 µM (≈ 32 µg/mL) | 817 µM (≈ 256 µg/mL) | 51 µM (≈ 16 µg/mL) | 409 µM (≈ 128 µg/mL) | 204 µM (≈ 63.9 µg/mL) | 102 µM (≈ 32 µg/mL) | 102 µM (≈ 32 µg/mL) | – | 204 µM (≈ 63.9 µg/mL) | 204 µM (≈ 63.9 µg/mL) | 26 µM (≈ 8.15 µg/mL) |
| CO/N=C(/C(=O)N1CCN(c2nccc(-n3cncn3)n2)CC1)c1csc(N)n1 | 587 µM (≈ 243 µg/mL) | 587 µM (≈ 243 µg/mL) | 147 µM (≈ 60.9 µg/mL) | 294 µM (≈ 122 µg/mL) | 294 µM (≈ 122 µg/mL) | 147 µM (≈ 60.9 µg/mL) | 294 µM (≈ 122 µg/mL) | 294 µM (≈ 122 µg/mL) | – | 294 µM (≈ 122 µg/mL) | 294 µM (≈ 122 µg/mL) | 587 µM (≈ 243 µg/mL) |
| CC(C)N(c1nccc(-n2cncn2)n1)C(C)C | 1040 µM (≈ 256 µg/mL) | 520 µM (≈ 128 µg/mL) | 1040 µM (≈ 256 µg/mL) | 1040 µM (≈ 256 µg/mL) | 1040 µM (≈ 256 µg/mL) | 1040 µM (≈ 256 µg/mL) | 1040 µM (≈ 256 µg/mL) | 520 µM (≈ 128 µg/mL) | – | 1040 µM (≈ 256 µg/mL) | 520 µM (≈ 128 µg/mL) | 520 µM (≈ 128 µg/mL) |
| OCCN(CCO)c1nccc(-n2cnc3ccccc32)n1 | 856 µM (≈ 256 µg/mL) | 107 µM (≈ 32 µg/mL) | 856 µM (≈ 256 µg/mL) | 214 µM (≈ 64.1 µg/mL) | 107 µM (≈ 32 µg/mL) | 428 µM (≈ 128 µg/mL) | 214 µM (≈ 64.1 µg/mL) | 107 µM (≈ 32 µg/mL) | – | 856 µM (≈ 256 µg/mL) | 856 µM (≈ 256 µg/mL) | 214 µM (≈ 64.1 µg/mL) |
| Nc1ccc(S(=O)(=O)Nc2ncccn2)cc1 [SULFADIAZINE] | 54 µM (≈ 13.5 µg/mL) | 129 µM (≈ 32.3 µg/mL) | 64 µM (≈ 16 µg/mL) | 64 µM (≈ 16 µg/mL) | 64 µM (≈ 16 µg/mL) | 1020 µM (≈ 256 µg/mL) | 256 µM (≈ 64.1 µg/mL) | 64 µM (≈ 16 µg/mL) | – | 64 µM (≈ 16 µg/mL) | 256 µM (≈ 64.1 µg/mL) | 31 µM (≈ 7.76 µg/mL) |
| OCCN(CCO)c1nccc(-n2ccnc2)n1 | 1030 µM (≈ 256 µg/mL) | 1030 µM (≈ 256 µg/mL) | 1030 µM (≈ 256 µg/mL) | 1030 µM (≈ 256 µg/mL) | 1030 µM (≈ 256 µg/mL) | 1030 µM (≈ 256 µg/mL) | 1030 µM (≈ 256 µg/mL) | 1030 µM (≈ 256 µg/mL) | – | 1030 µM (≈ 256 µg/mL) | 1030 µM (≈ 256 µg/mL) | 1030 µM (≈ 256 µg/mL) |
| OCCN(CCO)c1ccnc(-n2ccnc2)n1 | 2060 µM (≈ 512 µg/mL) | 1030 µM (≈ 256 µg/mL) | 2060 µM (≈ 512 µg/mL) | 1030 µM (≈ 256 µg/mL) | 1030 µM (≈ 256 µg/mL) | 1030 µM (≈ 256 µg/mL) | 1030 µM (≈ 256 µg/mL) | 1030 µM (≈ 256 µg/mL) | – | 1030 µM (≈ 256 µg/mL) | 1030 µM (≈ 256 µg/mL) | 514 µM (≈ 128 µg/mL) |
| Cc1cn(-c2nccc(N(CCO)CCO)n2)cn1 | 973 µM (≈ 256 µg/mL) | 1950 µM (≈ 512 µg/mL) | 1950 µM (≈ 512 µg/mL) | 973 µM (≈ 256 µg/mL) | 1950 µM (≈ 512 µg/mL) | 973 µM (≈ 256 µg/mL) | 973 µM (≈ 256 µg/mL) | 973 µM (≈ 256 µg/mL) | – | 486 µM (≈ 128 µg/mL) | 973 µM (≈ 256 µg/mL) | 973 µM (≈ 256 µg/mL) |
| CCN(CCO)c1nccc(-n2cncn2)n1 | 1090 µM (≈ 256 µg/mL) | 1090 µM (≈ 256 µg/mL) | 547 µM (≈ 128 µg/mL) | 1090 µM (≈ 256 µg/mL) | 1090 µM (≈ 256 µg/mL) | 1090 µM (≈ 256 µg/mL) | 1090 µM (≈ 256 µg/mL) | 1090 µM (≈ 256 µg/mL) | – | 1090 µM (≈ 256 µg/mL) | 1090 µM (≈ 256 µg/mL) | 547 µM (≈ 128 µg/mL) |
